# Measurements taken from US8716297B2, “Chemical entities to be used for Wee1 inhibition for the treatment of cancer” (AbbVie Inc., priority 2011, dated 2014).
# Molecular target: T1, GST-tagged-Wee1 kinase (Homo sapiens, UniProt P30291)
# T1 construct: purchased Carnabio 05-177
# Experiment: Wee1 time-resolved fluorescence equilibrium binding assay (displacement of Oregon Green-labeled ATP-competitive probe)
# Settings: TR-FRET probe displacement; 2 nM GST-Wee1, 300 nM probe, 1 hour incubation; read-out: Wee-1 binding (Ki nM)
# Experimental: Wee1 kinase was assayed using a time-resolved fluorescence equilibrium binding assay monitoring displacement of a rapidly reversible Oregon Green-labeled ATP-competitive kinase probe (N-(2-(2-(2-(4-(4-(5-chloro-4-(2-(1-hydroxycyclobutyl)thiazol-5-yl)-1H-pyrrolo[2,3-b]pyridin-2-yl)phenyl)piperazin-1-yl)ethoxy)ethoxy)ethyl)-2′,7′-difluoro-3′,6′-dihydroxy-3-oxo-3H-spiro[isobenzofuran-1,9′-xanthene]-5-carboxamide) by competitive Wee1 inhibitors.
# T1 sequence (P30291 whole entry): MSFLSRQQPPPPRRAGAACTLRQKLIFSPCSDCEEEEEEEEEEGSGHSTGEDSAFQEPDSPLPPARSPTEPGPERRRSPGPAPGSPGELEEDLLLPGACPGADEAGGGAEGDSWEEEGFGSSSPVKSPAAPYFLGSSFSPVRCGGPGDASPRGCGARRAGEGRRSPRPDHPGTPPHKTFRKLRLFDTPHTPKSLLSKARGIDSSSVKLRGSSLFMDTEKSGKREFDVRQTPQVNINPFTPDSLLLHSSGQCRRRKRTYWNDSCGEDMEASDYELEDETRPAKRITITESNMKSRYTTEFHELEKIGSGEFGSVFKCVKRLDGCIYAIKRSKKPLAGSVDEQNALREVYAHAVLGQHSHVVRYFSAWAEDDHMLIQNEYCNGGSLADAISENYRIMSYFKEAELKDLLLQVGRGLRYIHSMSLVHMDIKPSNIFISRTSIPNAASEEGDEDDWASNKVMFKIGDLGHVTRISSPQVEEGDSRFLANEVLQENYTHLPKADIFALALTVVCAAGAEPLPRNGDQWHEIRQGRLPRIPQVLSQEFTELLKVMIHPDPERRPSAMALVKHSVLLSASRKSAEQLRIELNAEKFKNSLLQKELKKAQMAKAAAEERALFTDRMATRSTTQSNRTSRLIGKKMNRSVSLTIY
row,Compound,Ki [nM]
1,"COC(=O)c1ccc2c(c1)NS(=O)(=O)c1cnc(Nc3ccc(N4CCN(C)CC4)cc3)nc1-2 [Example 65, methyl 2-{[4-(4-methylpiperazin-1-yl)phenyl]amino}-6H-pyrimido[5,4-c][2,1]benzothiazine-8-carboxylate 5,5-dioxide]",256
2,"CCCN1c2cc(-c3ccccc3)ccc2-c2nc(Nc3ccc(N4CCN(C)CC4)cc3)ncc2S1(=O)=O [Example 68, N-[4-(4-methylpiperazin-1-yl)phenyl]-8-phenyl-6-propyl-6H-pyrimido[5,4-c][2,1]benzothiazin-2-amine 5,5-dioxide]",92
3,"CCCN1c2cc(-c3ccsc3)ccc2-c2nc(Nc3ccc(N4CCN(C)CC4)cc3)ncc2S1(=O)=O [Example 74, N-[4-(4-methylpiperazin-1-yl)phenyl]-6-propyl-8-(3-thienyl)-6H-pyrimido[5,4-c][2,1]benzothiazin-2-amine 5,5-dioxide]",20
4,"CCCN1c2cc(-c3ccc(O)cc3)ccc2-c2nc(Nc3ccc(N4CCN(C)CC4)cc3)ncc2S1(=O)=O [Example 75, 4-(2-{[4-(4-methylpiperazin-1-yl)phenyl]amino}-5,5-dioxido-6-propyl-6H-pyrimido[5,4-c][2,1]benzothiazin-8-yl)phenol]",14
5,"CCCN1c2cc(-c3c[nH]c4ncccc34)ccc2-c2nc(Nc3ccc(N4CCN(C)CC4)cc3)ncc2S1(=O)=O [Example 77, N-[4-(4-methylpiperazin-1-yl)phenyl]-6-propyl-8-(1H-pyrrolo[2,3-b]pyridin-3-yl)-6H-pyrimido[5,4-c][2,1]benzothiazin-2-amine 5,5-dioxide]",57
6,"CCCN1c2cc(C(C)(C)O)ccc2-c2nc(Nc3ccc(N4CCN(C)CC4)cc3)ncc2S1(=O)=O [Example 80, 2-(2-{[4-(4-methylpiperazin-1-yl)phenyl]amino}-5,5-dioxido-6-propyl-6H-pyrimido[5,4-c][2,1]benzothiazin-8-yl)propan-2-ol]",14
7,"CCCN1c2cc(C(=O)NC3CCCCC3)ccc2-c2nc(Nc3ccc(N4CCN(C)CC4)cc3)ncc2S1(=O)=O [Example 81, N-cyclohexyl-2-{[4-(4-methylpiperazin-1-yl)phenyl]amino}-6-propyl-6H-pyrimido[5,4-c][2,1]benzothiazine-8-carboxamide 5,5-dioxide]",13
8,"CCCN1c2cc(C(=O)NC)ccc2-c2nc(Nc3ccc(N4CCN(C)CC4)cc3)ncc2S1(=O)=O [Example 82, N-methyl-2-{[4-(4-methylpiperazin-1-yl)phenyl]amino}-6-propyl-6H-pyrimido[5,4-c][2,1]benzothiazine-8-carboxamide 5,5-dioxide]",10
9,"CCCN1c2cc(C(=O)N(C)C)ccc2-c2nc(Nc3ccc(N4CCN(C)CC4)cc3)ncc2S1(=O)=O [Example 83, N,N-dimethyl-2-{[4-(4-methylpiperazin-1-yl)phenyl]amino}-6-propyl-6H-pyrimido[5,4-c][2,1]benzothiazine-8-carboxamide 5,5-dioxide]",23
10,"CCCN1c2cc(C(=O)NCCO)ccc2-c2nc(Nc3ccc(N4CCN(C)CC4)cc3)ncc2S1(=O)=O [Example 84, N-(2-hydroxyethyl)-2-{[4-(4-methylpiperazin-1-yl)phenyl]amino}-6-propyl-6H-pyrimido[5,4-c][2,1]benzothiazine-8-carboxamide 5,5-dioxide]",8
11,"COC(=O)c1ccc2c(c1)N(c1cccc(C)c1)S(=O)(=O)c1cnc(Nc3ccc(N4CCN(C)CC4)cc3)nc1-2 [Example 89, methyl 6-(3-methylphenyl)-2-{[4-(4-methylpiperazin-1-yl)phenyl]amino}-6H-pyrimido[5,4-c][2,1]benzothiazine-8-carboxylate 5,5-dioxide]",63
12,"COC(=O)c1ccc2c(c1)N(c1cc(C(F)(F)F)cc(C(F)(F)F)c1)S(=O)(=O)c1cnc(Nc3ccc(N4CCN(C)CC4)cc3)nc1-2 [Example 91, methyl 6-[3,5-bis(trifluoromethyl)phenyl]-2-{[4-(4-methylpiperazin-1-yl)phenyl]amino}-6H-pyrimido[5,4-c][2,1]benzothiazine-8-carboxylate 5,5-dioxide]",2700
13,"CCCN1c2cc(-n3ccnc3)ccc2-c2nc(Nc3ccc(N4CCN(C)CC4)cc3)ncc2S1(=O)=O [Example 92, 8-(1H-imidazol-1-yl)-N-[4-(4-methylpiperazin-1-yl)phenyl]-6-propyl-6H-pyrimido[5,4-c][2,1]benzothiazin-2-amine 5,5-dioxide]",14
14,"CCCN1c2cc(-n3cccc3)ccc2-c2nc(Nc3ccc(N4CCN(C)CC4)cc3)ncc2S1(=O)=O [Example 93, N-[4-(4-methylpiperazin-1-yl)phenyl]-6-propyl-8-(1H-pyrrol-1-yl)-6H-pyrimido[5,4-c][2,1]benzothiazin-2-amine 5,5-dioxide]",45

# Stronger by Ki, values ahead:
row,Ki [nM],Compound
1,7,"CCCN1c2cc(-c3ccc(C(=O)NC4CC4)cc3)ccc2-c2nc(Nc3ccc(N4CCN(C)CC4)cc3)ncc2S1(=O)=O [Example 72, N-cyclopropyl-4-(2-{[4-(4-methylpiperazin-1-yl)phenyl]amino}-5,5-dioxido-6-propyl-6H-pyrimido[5,4-c][2,1]benzothiazin-8-yl)benzamide]"
2,6,"CCCN1c2cc(Br)ccc2-c2nc(Nc3ccc(N4CCN(C)CC4)cc3)ncc2S1(=O)=O [Example 66, 8-bromo-N-[4-(4-methylpiperazin-1-yl)phenyl]-6-propyl-6H-pyrimido[5,4-c][2,1]benzothiazin-2-amine 5,5-dioxide]"
3,6,"CCCN1c2cc(C(=O)OC)ccc2-c2nc(Nc3ccc(N4CCN(C)CC4)cc3)ncc2S1(=O)=O [Example 78, methyl 2-{[4-(4-methylpiperazin-1-yl)phenyl]amino}-6-propyl-6H-pyrimido[5,4-c][2,1]benzothiazine-8-carboxylate 5,5-dioxide]"
4,6,"CCCN1c2cc(C(N)=O)ccc2-c2nc(Nc3ccc(N4CCN(C)CC4)cc3)ncc2S1(=O)=O [Example 79, 2-{[4-(4-methylpiperazin-1-yl)phenyl]amino}-6-propyl-6H-pyrimido[5,4-c][2,1]benzothiazine-8-carboxamide 5,5-dioxide]"
5,5,"CCCN1c2cc(-c3cn[nH]c3)ccc2-c2nc(Nc3ccc(N4CCN(C)CC4)cc3)ncc2S1(=O)=O [Example 70, N-[4-(4-methylpiperazin-1-yl)phenyl]-6-propyl-8-(1H-pyrazol-4-yl)-6H-pyrimido[5,4-c][2,1]benzothiazin-2-amine 5,5-dioxide]"
6,5,"CCCN1c2cc(-c3ccncc3)ccc2-c2nc(Nc3ccc(N4CCN(C)CC4)cc3)ncc2S1(=O)=O [Example 76, N-[4-(4-methylpiperazin-1-yl)phenyl]-6-propyl-8-(pyridin-4-yl)-6H-pyrimido[5,4-c][2,1]benzothiazin-2-amine 5,5-dioxide]"
7,5,"CCCN1c2cc(C(=O)NCCOC)ccc2-c2nc(Nc3ccc(N4CCN(C)CC4)cc3)ncc2S1(=O)=O [Example 85, N-(2-methoxyethyl)-2-{[4-(4-methylpiperazin-1-yl)phenyl]amino}-6-propyl-6H-pyrimido[5,4-c][2,1]benzothiazine-8-carboxamide 5,5-dioxide]"
8,5,"CCCN1c2cc(C(=O)NCc3cccnc3)ccc2-c2nc(Nc3ccc(N4CCN(C)CC4)cc3)ncc2S1(=O)=O [Example 87, 2-{[4-(4-methylpiperazin-1-yl)phenyl]amino}-6-propyl-N-(pyridin-3-ylmethyl)-6H-pyrimido[5,4-c][2,1]benzothiazine-8-carboxamide 5,5-dioxide]"
9,4,"CCCN1c2ccccc2-c2nc(Nc3ccc(N4CCN(C)CC4)cc3)ncc2S1(=O)=O [Example 67, N-[4-(4-methylpiperazin-1-yl)phenyl]-6-propyl-6H-pyrimido[5,4-c][2,1]benzothiazin-2-amine 5,5-dioxide]"
10,4,"CCCN1c2cc(-c3cccnc3)ccc2-c2nc(Nc3ccc(N4CCN(C)CC4)cc3)ncc2S1(=O)=O [Example 69, N-[4-(4-methylpiperazin-1-yl)phenyl]-6-propyl-8-(pyridin-3-yl)-6H-pyrimido[5,4-c][2,1]benzothiazin-2-amine 5,5-dioxide]"
11,4,"CCCN1c2cc(-c3ccc(C(N)=O)cc3)ccc2-c2nc(Nc3ccc(N4CCN(C)CC4)cc3)ncc2S1(=O)=O [Example 71, 4-(2-{[4-(4-methylpiperazin-1-yl)phenyl]amino}-5,5-dioxido-6-propyl-6H-pyrimido[5,4-c][2,1]benzothiazin-8-yl)benzamide]"
12,4,"CCCN1c2cc(C(=O)N[C@H]3CC[C@H](N)CC3)ccc2-c2nc(Nc3ccc(N4CCN(C)CC4)cc3)ncc2S1(=O)=O [Example 86, N-(trans-4-aminocyclohexyl)-2-{[4-(4-methylpiperazin-1-yl)phenyl]amino}-6-propyl-6H-pyrimido[5,4-c][2,1]benzothiazine-8-carboxamide 5,5-dioxide]"
13,3,"CCCN1c2cc(-c3cnc(N)nc3)ccc2-c2nc(Nc3ccc(N4CCN(C)CC4)cc3)ncc2S1(=O)=O [Example 73, 8-(2-aminopyrimidin-5-yl)-N-[4-(4-methylpiperazin-1-yl)phenyl]-6-propyl-6H-pyrimido[5,4-c][2,1]benzothiazin-2-amine 5,5-dioxide]"
14,2,"C=CCN1c2cc(Br)ccc2-c2nc(Nc3ccc(N4CCN(C)CC4)cc3)ncc2S1(=O)=O [Example 64, 6-allyl-8-bromo-N-[4-(4-methylpiperazin-1-yl)phenyl]-6H-pyrimido[5,4-c][2,1]benzothiazin-2-amine 5,5-dioxide]"
15,2,"COC(=O)c1ccc2c(c1)N(c1ccccc1)S(=O)(=O)c1cnc(Nc3ccc(N4CCN(C)CC4)cc3)nc1-2 [Example 88, methyl 2-{[4-(4-methylpiperazin-1-yl)phenyl]amino}-6-phenyl-6H-pyrimido[5,4-c][2,1]benzothiazine-8-carboxylate 5,5-dioxide]"
